From ChEMBL document CHEMBL1146431, “Isolation and structure elucidation of ardisenone: a new, cytotoxic alkenylphenol from Ardisia iwahigensis” (J Nat Prod, 1997) come the findings set out here.

Values after ≈ are worked out from the molar mass of the structure shown.

Common to all, as to type: functional, cell-based
Assay [1] is described as follows: Cytotoxicity against human BC1 cells by SRB assay. On the technique in general: Sulforhodamine B stains cellular protein and so reports cell mass.
The next assay relates to LNCaP. Nature of the assay: Cytotoxicity against human LNCAP cells by SRB assay.
A further assay relates to Lu1. Nature of the assay: Cytotoxicity against human Lu1 cells by SRB assay.
A short description of assay [2]: Cytotoxicity against human vinblastine-resistant KBV1 cells by SRB assay in presence of vinblastine. As to conditions: KB-V1.
The next assay relates to KB. Nature of the assay: Cytotoxicity against human KB cells by SRB assay.
Assay [3] in a line: Cytotoxicity against human vinblastine-resistant KBV1 cells by SRB assay in absence of vinblastine. The settings on record: KB-V1.
In the next assay the test system is Col2. The experiment in a line: Cytotoxicity against human Col2 cells by SRB assay.

By IC50 is commonly meant the concentration that inhibits the measured activity by half. On to `COc1cc(O)cc(CC(=O)CCC/C=C\CCCCCCCCC(=O)c2cc(O)cc(OC)c2)c1` [ARDISENONE], for which the IC50 in assay [1] is 8.5 µg/mL (≈ 17.1 µM); in the assay on LNCaP it was 11 µg/mL (≈ 22.1 µM); with Lu1 it was 4.9 µg/mL (≈ 9.87 µM); in assay [2] it was 8 µg/mL; in the assay with KB it was 13 µg/mL (≈ 26.2 µM); in assay [3] it was 6.9 µg/mL (≈ 13.9 µM). In addition, in the assay with Col2, the IC50 worked out at 15 µg/mL (≈ 30.2 µM).
